A short description of data set [1]: Human microsome stability assay. Type of data set: in vitro ADME. Conditions: human liver microsomes, 1 μM test compound, 0.5 mg/mL microsomal protein, 37° C., pH 7.4, 0-30 minutes. In outline:
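Compound (1 μM) incubated at 37 °C with human liver microsomes (0.5 mg/mL protein) in 100 mM potassium phosphate, pH 7.4, after 10 min preincubation; started with NADPH regenerating system. Sampled at 0–30 min, quenched with cold ACN; remaining parent quantified by LC-MS/MS, with no-NADPH controls.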
Background: Liver microsomes are a subcellular fraction often used to study metabolism.

Data set [2] relates to HBeAg (surrogate marker for cccDNA) in HepDES19 cells. The experiment in a line: Engineered HepDES19 primary screen assay (HBeAg ELISA). Type of data set: cell-based, HBV. Conditions: Hepatitis B virus, HepDES19, 120 h, read-out: IC50 (HBeAg level, HepDES19 primary screen assay), HepDES19 cells, 5 days compound incubation, HBeAg ELISA. The essentials: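 HepDES19 cells were induced by Tet withdrawal for 8 days, then treated with half-log compound dilutions (1% DMSO final) for 5 days at 37 °C. HBeAg was measured by ELISA as the cccDNA surrogate, viability by CCK-8, and IC50 from a 4-parameter logistic fit.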
On the technique in general: ELISA stands for enzyme-linked immunosorbent assay.

For data set [3], the system named is HBsAg in HBV-infected PHH. The experiment in a line: Cryopreserved primary human hepatocytes (PHH) HBV infection assay, extracellular HBsAg (CLIA). In kind it is cell-based. The note with it: Hepatitis B virus, Hepatocyte, 216 h, read-out: HBsAg IC50, Cryopreserved PHH infected with HBV, 9 days post-compound treatment, extracellular HBsAg. In outline:
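Cryopreserved PHH were infected with 5.8×10^6 HBV genome equivalents in medium with 4% PEG8000 and 1% DMSO. After 9 days of treatment, extracellular HBsAg was measured by CLIA, and IC50 was derived from a 4-parameter logistic fit.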

Broadly, the IC50 is the midpoint of a concentration-inhibition curve. On to `O=c1cc(-c2ccccc2OCCO[C@H]2C[C@H](C(=O)O)C2)oc2c(Cl)cc(F)cc12` [Example C036-B, Trans-3-[2-[2-(8-chloro-6-fluoro-4-oxo-chromen-2-yl)phenoxy]ethoxy]cyclobutanecarboxylic acid], for which the “Clearance of Human microsome” value in data set [1] is 6.15 mL/min/kg. Also, the IC50 in data set [2] came out at 0.77 µM; in data set [3] it was 5.58 µM.
For `Cc1ccc(-c2cc(=O)c3cccc(Cl)c3o2)c(OCCO[C@H]2C[C@@H](C(=O)O)C2)c1` [Example C038-A, Cis-3-[2-[2-(8-chloro-4-oxo-chromen-2-yl)-5-methyl-phenoxy]ethoxy]cyclobutanecarboxylic acid], the “Clearance of Human microsome” value in data set [1] came out at 6.15 mL/min/kg. Also, the half-maximal inhibitory concentration (IC50) in data set [2] came out at 0.643 µM; in data set [3] it was 8.61 µM.
Regarding `O=c1cc(-c2cc(C(F)(F)F)c(Br)cc2OCCO[C@H]2C[C@H](C(=O)O)C2)oc2c(Cl)cccc12` [Example C042-B], the “Clearance of Human microsome” value in data set [1] was found to be 6.15 mL/min/kg. Moreover, the IC50 is 15.3 µM in data set [2] and 8.96 µM in data set [3].
The like results for `O=c1cc(-c2cc3c(cc2OCCO[C@H]2C[C@@H](C(=O)O)C2)OCO3)oc2c(Cl)cccc12` [Example C043-A, Cis-3-[2-[[6-(8-chloro-4-oxo-chromen-2-yl)-1,3-benzodioxo1-5-yl]oxy]ethoxy]cyclobutanecarboxylic acid] were, in that order, 6.15 mL/min/kg, 2.68 µM and 8.67 µM.
The like results for `O=c1cc(-c2cc3c(cc2OCCO[C@H]2C[C@H](C(=O)O)C2)OCO3)oc2c(Cl)cccc12` [Example C043-B, Trans-3-[2-[[6-(8-chloro-4-oxo-chromen-2-yl)-1,3-benzodioxo1-5-yl]oxy]ethoxy]cyclobutanecarboxylic acid] were, in that order, 7.72 mL/min/kg, 9.42 µM and 5.2 µM.
The like results for `O=c1cc(-c2cc(F)c(Br)cc2OCCO[C@H]2C[C@@H](C(=O)O)C2)oc2c(Cl)cccc12` [Example C044-A, Cis-3-[2-[5-bromo-2-(8-chloro-4-oxo-chromen-2-yl)-4-fluoro-phenoxy]ethoxy]cyclobutanecarboxylic acid] were, in that order, 6.15 mL/min/kg, 2.01 µM and 9.58 µM.
Take `O=C1CCCN1c1ccc(-c2cc(=O)c3cccc(Cl)c3o2)c(OCCO[C@H]2C[C@@H](C(=O)O)C2)c1` [Example C063-A, Cis-3-[2-[2-(8-chloro-4-oxo-chromen-2-yl)-5-(2-oxopyrrolidin-1-yl)phenoxy]ethoxy]cyclobutanecarboxylic acid]: the “Clearance of Human microsome” value in data set [1] was found to be 9.09 mL/min/kg. Besides, the results for the IC50 in data set [2] and in data set [3] were 4.95 µM and 6.61 µM, respectively.
Consider `COc1cc(-c2cc(=O)c3cccc(Cl)c3o2)c(OCCO[C@H]2C[C@@H](C(=O)O)C2)cc1Br` [Example C073, Cis-3-[2-[5-bromo-2-(8-chloro-4-oxo-chromen-2-yl)-4-methoxy-phenoxy]ethoxy]cyclobutanecarboxylic acid], for which the “Clearance of Human microsome” value in data set [1] stood at 7.85 mL/min/kg. In addition, the results for the IC50 in data set [2] and in data set [3] were 0.92 µM and 7.56 µM, respectively.
For `CCCOc1cc(OCCO[C@H]2C[C@@H](C(=O)O)C2)c(-c2cc(=O)c3cccc(Cl)c3o2)cc1OC` [Example C077, Cis-3-[2-[2-(8-chloro-4-oxo-chromen-2-yl)-4-methoxy-5-propoxy-phenoxy]ethoxy]cyclobutanecarboxylic acid], in that order: 6.15 mL/min/kg, 3.21 µM and 9.37 µM.
Consider `CCOc1cc(OCCO[C@H]2C[C@@H](C(=O)O)C2)c(-c2cc(=O)c3cccc(Cl)c3o2)cc1OC` [Example C078, Cis-3-[2-[2-(8-chloro-4-oxo-chromen-2-yl)-5-ethoxy-4-methoxy-phenoxy]ethoxy]cyclobutanecarboxylic acid], for which the “Clearance of Human microsome” value in data set [1] was 6.15 mL/min/kg. Further, the IC50 in data set [2] was found to be 15 µM; in data set [3], 6.32 µM.
The like results for `COc1cc(-c2cc(=O)c3cccc(Cl)c3o2)c(OCCO[C@H]2C[C@@H](C(=O)O)C2)cc1OCC(F)(F)F` [Example C080, Cis-3-[2-[2-(8-chloro-4-oxo-chromen-2-yl)-4-methoxy-5-(2,2,2-trifluoroethoxy)phenoxy]ethoxy]cyclobutanecarboxylic acid] were, in that order, 6.15 mL/min/kg, 4 µM and 3.51 µM.
`COc1cc(-c2cc(=O)c3cccc(Cl)c3o2)c(OCCO[C@H]2C[C@@H](C(=O)O)C2)cc1OC(F)F` [Example C081, Cis-3-[2-[2-(8-chloro-4-oxo-chromen-2-yl)-5-(difluoromethoxy)-4-methoxy-phenoxy]ethoxy]cyclobutanecarboxylic acid]: in data set [1], the “Clearance of Human microsome” value was determined as 6.15 mL/min/kg. Also, the IC50 in data set [2] was found to be 0.779 µM; in data set [3] it was 8.77 µM.
The like results for `COc1cc(OCCO[C@H]2C[C@@H](C(=O)O)C2)c(-c2cc(=O)c3cccc(Cl)c3o2)cc1OCC1CC1` [Example C082, cis-3-[2-[2-(8-chloro-4-oxo-chromen-2-yl)-4-(cyclopropylmethoxy)-5-methoxy-phenoxy]ethoxy]cyclobutanecarboxylic acid] were, in that order, 6.15 mL/min/kg, 3.97 µM and 9.52 µM.
Regarding `CCOc1cc(-c2cc(=O)c3cccc(Cl)c3o2)c(OCCO[C@H]2C[C@@H](C(=O)O)C2)cc1OC` [Example C084, cis-3-[2-[2-(8-chloro-4-oxo-chromen-2-yl)-4-ethoxy-5-methoxy-phenoxy]ethoxy]cyclobutanecarboxylic acid], the “Clearance of Human microsome” value in data set [1] is listed as 6.15 mL/min/kg. Moreover, the IC50 in data set [2] turned out to be 15.1 µM; in data set [3] it was 5.21 µM.
The like results for `COc1cc(OCCO[C@H]2C[C@@H](C(=O)O)C2)c(-c2cc(=O)c3cccc(Cl)c3o2)cc1OCC(F)(F)F` [Example C085, cis-3-[2-[2-(8-chloro-4-oxo-chromen-2-yl)-5-methoxy-4-(2,2,2-trifluoroethoxy)phenoxy]ethoxy]cyclobutanecarboxylic acid] were, in that order, 6.15 mL/min/kg, 0.271 µM and 9.02 µM.
For `COc1cc(OCCO[C@H]2C[C@@H](C(=O)O)C2)c(-c2cc(=O)c3cccc(Cl)c3o2)cc1OC(F)F` [Example C086, cis-3-[2-[2-(8-chloro-4-oxo-chromen-2-yl)-4-(difluoromethoxy)-5-methoxy-phenoxy]ethoxy]cyclobutanecarboxylic acid], in that order: 6.15 mL/min/kg, 5.03 µM and 5.46 µM.
With `COc1cc(OCCO[C@H]2C[C@@H](C(=O)O)C2)c(-c2cc(=O)c3c(C(F)(F)F)ccc(Cl)c3o2)cc1OC` [Example C096, Cis-3-[2-[2-[8-chloro-4-oxo-5-(trifluoromethyl)chromen-2-yl]-4,5-dimethoxy-phenoxy]ethoxy]cyclobutanecarboxylic acid], the “Clearance of Human microsome” value in data set [1] was found to be 6.15 mL/min/kg. Besides, the IC50 in data set [2] stood at 3.48 µM; in data set [3], 7.78 µM.

The record behind these values is patent publication US11708344B2, “Flavone derivatives for the treatment and prophylaxis of hepatitis B virus disease” (Hoffmann-La Roche Inc., priority 2018, dated 2023).
